Reference: ChEMBL document CHEMBL1201862, “PubChem BioAssay data set” (2004)
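How tested: cells in 96-well plates exposed to compound for 48 hours at five concentrations. GI50 = concentration required for 50% inhibition of growth.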 Activity calls are given as the source filed them. Cut-off read from the data, not from the text of the source: active = GI50 up to about 1.1 µM and inactive = higher.

Tests used:
Experiment in all cases: DTP human tumour cell line panel, 48 h
Hs-578T = test system: Hs-578T
A498 = test system: A498
COLO 205 = test system: COLO 205
SK-MEL-28 = test system: SK-MEL-28
UACC-62 = test system: UACC-62
U-251 = test system: U-251
HOP-92 = test system: HOP-92
SN12C = test system: SN12C
SNB-19 = test system: SNB-19
SW-620 = test system: SW-620
HOP-62 = test system: HOP-62
HCT-116 = test system: HCT-116
SR = test system: SR
PC-3 = test system: PC-3
HCT-15 = test system: HCT-15
OVCAR-3 = test system: OVCAR-3
SF-539 = test system: SF-539
LOX IMVI = test system: LOX IMVI
TK-10 = test system: TK-10
CCRF-CEM = test system: CCRF-CEM
NCI-H226 = test system: NCI-H226
MCF7 = test system: MCF7
K562 = test system: K562
MDA-N = test system: MDA-N
HL-60 = test system: HL-60
NCI-H23 = test system: NCI-H23
786-0 = test system: 786-0
OVCAR-4 = test system: OVCAR-4
OVCAR-8 = test system: OVCAR-8
IGROV-1 = test system: IGROV-1
OVCAR-5 = test system: OVCAR-5
MDA-MB-435 = test system: MDA-MB-435
UO-31 = test system: UO-31
BT-549 = test system: BT-549
NCI-H460 = test system: NCI-H460
RPMI-8226 = test system: RPMI-8226
SK-MEL-5 = test system: SK-MEL-5
SNB-75 = test system: SNB-75
UACC-257 = test system: UACC-257
HCC 2998 = test system: HCC 2998
ACHN = test system: ACHN
DU-145 = test system: DU-145
A549 = test system: A549
MOLT-4 = test system: MOLT-4
SK-OV-3 = test system: SK-OV-3
CAKI-1 = test system: CAKI-1
M14 = test system: M14
NCI/ADR-RES = test system: NCI/ADR-RES
KM12 = test system: KM12
HT-29 = test system: HT-29
T47D = test system: T47D
EKVX = test system: EKVX
MDA-MB-231 = test system: MDA-MB-231
SF-268 = test system: SF-268
SF-295 = test system: SF-295
RXF 393 = test system: RXF 393
Malme-3M = test system: Malme-3M
SK-MEL-2 = test system: SK-MEL-2

Q: Which GI50 (Hs-578T) does the source give for `C=CCOc1ccccc1C1(O)c2ccccc2C2=NCCCN21` (stereo not given) here?
A: 77.8 µM (inactive)

Q: And the GI50 (A498)?
A: > 100 µM (inactive)

Q: And the GI50 (COLO 205)?
A: 21.4 µM (inactive)

Q: What about the GI50 (SK-MEL-28) of the same compound?
A: 20.4 µM (inactive)

Q: And the GI50 (UACC-62)?
A: 40.9 µM (inactive)

Q: And the GI50 (U-251)?
A: 46.5 µM (inactive)

Q: What about the GI50 (HOP-92) of the same compound?
A: 56.9 µM (inactive)

Q: What about the GI50 (SN12C) of the same compound?
A: 74.1 µM (inactive)

Q: And the GI50 (SNB-19)?
A: 33.5 µM (inactive)

Q: What about the GI50 (SW-620) of the same compound?
A: 56.5 µM (inactive)

Q: What about the GI50 (HOP-62) of the same compound?
A: 18.9 µM (inactive)

Q: And the GI50 (HCT-116)?
A: 34.2 µM (inactive)

Q: What about the GI50 (SR) of the same compound?
A: > 100 µM (inactive)

Q: And the GI50 (PC-3)?
A: 20.7 µM (inactive)

Q: And the GI50 (HCT-15)?
A: > 100 µM

Q: And the GI50 (OVCAR-3)?
A: 22.2 µM (inactive)

Q: What about the GI50 (SF-539) of the same compound?
A: 17.6 µM (inactive)

Q: What about the GI50 (LOX IMVI) of the same compound?
A: 38.1 µM (inactive)

Q: And the GI50 (TK-10)?
A: 90.8 µM (inactive)

Q: What about the GI50 (CCRF-CEM) of the same compound?
A: 33 µM (inactive)

Q: And the GI50 (NCI-H226)?
A: 31.8 µM (inactive)

Q: What about the GI50 (MCF7) of the same compound?
A: 31.5 µM (inactive)

Q: And the GI50 (K562)?
A: 45.3 µM (inactive)

Q: What about the GI50 (MDA-N) of the same compound?
A: 39.9 µM (inactive)

Q: What about the GI50 (HL-60) of the same compound?
A: 26.8 µM (inactive)

Q: And the GI50 (NCI-H23)?
A: 30.8 µM (inactive)

Q: What about the GI50 (786-0) of the same compound?
A: 47.3 µM (inactive)

Q: And the GI50 (OVCAR-4)?
A: 70.3 µM (inactive)

Q: What about the GI50 (OVCAR-8) of the same compound?
A: 19.5 µM (inactive)

Q: What about the GI50 (IGROV-1) of the same compound?
A: 16.8 µM (inactive)

Q: And the GI50 (OVCAR-5)?
A: 32.3 µM (inactive)

Q: And the GI50 (MDA-MB-435)?
A: 30.9 µM (inactive)

Q: And the GI50 (UO-31)?
A: > 100 µM (inactive)

Q: What about the GI50 (BT-549) of the same compound?
A: 81.1 µM (inactive)

Q: And the GI50 (NCI-H460)?
A: 78.9 µM (inactive)

Q: What about the GI50 (RPMI-8226) of the same compound?
A: 35.6 µM (inactive)

Q: And the GI50 (SK-MEL-5)?
A: 25.6 µM (inactive)

Q: What about the GI50 (SNB-75) of the same compound?
A: 15.1 µM (inactive)

Q: What about the GI50 (UACC-257) of the same compound?
A: 30.9 µM (inactive)

Q: What about the GI50 (HCC 2998) of the same compound?
A: 15.7 µM (inactive)

Q: What about the GI50 (ACHN) of the same compound?
A: 37.8 µM (inactive)

Q: And the GI50 (DU-145)?
A: 57.9 µM (inactive)

Q: And the GI50 (A549)?
A: > 100 µM (inactive)

Q: What about the GI50 (MOLT-4) of the same compound?
A: 32.9 µM (inactive)

Q: And the GI50 (SK-OV-3)?
A: > 100 µM (inactive)

Q: What about the GI50 (CAKI-1) of the same compound?
A: > 100 µM (inactive)

Q: And the GI50 (M14)?
A: 18.7 µM (inactive)

Q: And the GI50 (NCI/ADR-RES)?
A: > 100 µM (inactive)

Q: What about the GI50 (KM12) of the same compound?
A: 32.4 µM (inactive)

Q: What about the GI50 (HT-29) of the same compound?
A: 19.5 µM (inactive)

Q: And the GI50 (T47D)?
A: > 100 µM (inactive)

Q: And the GI50 (EKVX)?
A: 56.1 µM (inactive)

Q: What about the GI50 (MDA-MB-231) of the same compound?
A: > 100 µM (inactive)

Q: And the GI50 (SF-268)?
A: > 100 µM (inactive)

Q: And the GI50 (SF-295)?
A: 31 µM (inactive)

Q: Which results are given for `Nc1ncnc2c1ncn2C=C=CCO`?
A: GI50 (Hs-578T): > 100 µM (inactive); GI50 (A498): > 100 µM (inactive); GI50 (COLO 205): > 100 µM (inactive); GI50 (SK-MEL-28): > 100 µM (inactive); GI50 (U-251): > 100 µM (inactive); GI50 (HOP-92): > 100 µM (inactive); GI50 (SN12C): > 100 µM (inactive); GI50 (SNB-19): > 100 µM (inactive); GI50 (SW-620): > 100 µM (inactive); GI50 (HOP-62): > 100 µM (inactive); GI50 (HCT-116): > 100 µM (inactive); GI50 (SR): > 100 µM (inactive); GI50 (PC-3): > 100 µM (inactive); GI50 (HCT-15): > 100 µM; GI50 (OVCAR-3): > 100 µM (inactive); GI50 (LOX IMVI): > 100 µM (inactive); GI50 (TK-10): > 100 µM (inactive); GI50 (CCRF-CEM): > 100 µM (inactive); GI50 (NCI-H226): > 100 µM (inactive); GI50 (MCF7): > 100 µM (inactive); GI50 (K562): > 100 µM (inactive); GI50 (MDA-N): > 100 µM (inactive); GI50 (RXF 393): > 100 µM (inactive); GI50 (NCI-H23): > 100 µM (inactive); GI50 (OVCAR-4): > 100 µM (inactive); GI50 (OVCAR-8): > 100 µM (inactive); GI50 (Malme-3M): > 100 µM (inactive); GI50 (OVCAR-5): > 100 µM (inactive); GI50 (MDA-MB-435): > 100 µM (inactive); GI50 (UO-31): > 100 µM (inactive); GI50 (BT-549): > 100 µM (inactive); GI50 (NCI-H460): > 100 µM (inactive); GI50 (RPMI-8226): > 100 µM (inactive); GI50 (SK-MEL-5): > 100 µM (inactive); GI50 (SNB-75): > 100 µM (inactive); GI50 (UACC-257): > 100 µM (inactive); GI50 (SK-MEL-2): > 100 µM (inactive); GI50 (HCC 2998): > 100 µM (inactive); GI50 (DU-145): > 100 µM (inactive); GI50 (MOLT-4): > 100 µM (inactive); GI50 (CAKI-1): > 100 µM (inactive); GI50 (M14): > 100 µM (inactive); GI50 (NCI/ADR-RES): > 100 µM (inactive); GI50 (KM12): > 100 µM (inactive); GI50 (HT-29): > 100 µM (inactive); GI50 (T47D): > 100 µM (inactive); GI50 (MDA-MB-231): > 100 µM (inactive); GI50 (SF-295): > 100 µM (inactive)

Q: Which results are given for `CCOC(=O)C1(C(=O)OCC)CCCN1C(=O)[C@H](CNC(=O)OC(C)(C)C)NC(=O)OCc1ccccc1`?
A: GI50 (Hs-578T): > 100 µM (inactive); GI50 (COLO 205): > 100 µM (inactive); GI50 (SK-MEL-28): > 100 µM (inactive); GI50 (U-251): > 100 µM (inactive); GI50 (SN12C): > 100 µM (inactive); GI50 (SNB-19): > 100 µM (inactive); GI50 (SW-620): > 100 µM (inactive); GI50 (HOP-62): > 100 µM (inactive); GI50 (HCT-116): > 100 µM (inactive); GI50 (SR): 51.6 µM (inactive); GI50 (PC-3): > 100 µM (inactive); GI50 (HCT-15): > 100 µM; GI50 (OVCAR-3): > 100 µM (inactive); GI50 (SF-539): > 100 µM (inactive); GI50 (LOX IMVI): > 100 µM (inactive); GI50 (TK-10): > 100 µM (inactive); GI50 (CCRF-CEM): 17.4 µM (inactive); GI50 (NCI-H226): > 100 µM (inactive); GI50 (MCF7): > 100 µM (inactive); GI50 (K562): 32.8 µM (inactive); GI50 (MDA-N): > 100 µM (inactive); GI50 (RXF 393): > 100 µM (inactive); GI50 (NCI-H23): > 100 µM (inactive); GI50 (786-0): > 100 µM (inactive); GI50 (OVCAR-4): > 100 µM (inactive); GI50 (IGROV-1): > 100 µM (inactive); GI50 (OVCAR-5): > 100 µM (inactive); GI50 (MDA-MB-435): > 100 µM (inactive); GI50 (UO-31): > 100 µM (inactive); GI50 (BT-549): > 100 µM (inactive); GI50 (NCI-H460): > 100 µM (inactive); GI50 (RPMI-8226): 31.3 µM (inactive); GI50 (SK-MEL-5): > 100 µM (inactive); GI50 (SNB-75): 79.6 µM (inactive); GI50 (UACC-257): > 100 µM (inactive); GI50 (SK-MEL-2): > 100 µM (inactive); GI50 (HCC 2998): 67.6 µM (inactive); GI50 (ACHN): > 100 µM (inactive); GI50 (DU-145): > 100 µM (inactive); GI50 (A549): > 100 µM (inactive); GI50 (MOLT-4): 27.8 µM (inactive); GI50 (SK-OV-3): > 100 µM (inactive); GI50 (CAKI-1): > 100 µM (inactive); GI50 (M14): > 100 µM (inactive); GI50 (NCI/ADR-RES): > 100 µM (inactive); GI50 (KM12): > 100 µM (inactive); GI50 (HT-29): > 100 µM (inactive); GI50 (T47D): > 100 µM (inactive); GI50 (EKVX): > 100 µM (inactive); GI50 (MDA-MB-231): > 100 µM (inactive); GI50 (SF-268): > 100 µM (inactive); GI50 (SF-295): > 100 µM (inactive)
